From US20200345733A1, “Microbicidal Pyrimidine or Triazine Containing Compounds” (Janssen Sciences Ireland UC, priority 2002, published 2020)

Key:
[1] = target: HIV-1 reverse transcriptase (HIV-1 RT) (Human immunodeficiency virus type 1 group M subtype B, UniProt P04585); assay: Steady state kinetics of RNA-dependent DNA polymerization by HIV-1 RT; format: biochemical
Procedure: In a first experiment, the reaction velocity was determined in the presence of different concentrations of compound B and different concentrations of dGTP while the concentration of the p(rC)p(dG) complex was constant.
In a second experimental the reaction velocity was determined in the presence of different concentrations of compound B and different concentrations of p(rC)p(dG) while the concentration of the substrate was constant.

HIV-1 RF = assay: Direct antiviral activity, immobilised virus with Jurkat-tat indicator cells; format: cell-based
[2] = target: HIV-1 reverse transcriptase (Human immunodeficiency virus type 1 group M subtype B, UniProt P04585); assay: Cell-free HIV-1 reverse transcriptase inhibition; format: biochemical; details: inhibits HIV-1 reverse transcriptase activity by 50%, cell-free assay
Procedure: Next to antiviral activity in CEM T cells, inhibition of HIV-1 reverse transriptase activity was measured in a cell-free assay, in which the 50% inhibitory concentration (IC50) of said compound is indicated (FIG. 1). The CEM system, using a lab T cell-line and the SI/X4labstrain HTLV-IIIb, was not directly relevant to sexual transmission, where primary T cells, dendritic cells and NSI/R5 viruses are involved. Therefore, we focussed on prevention of NSI/R5 HIV infection in MO-DC/CD4(+) T cell co-cultures.

T cells = format: cell-based; details: human, 5 days
Procedure: (§1) Immune Suppressive Concentration (ISC50) is defined as the drug concentration inhibiting 50% of the lymphocyte proliferation. Cellular toxicity was evaluated microscopically by […] staining of co-cultures of MO-DC and allogeneic CD4(+) T cells , cultured for 5 days in the presence of a dilution series of drug. Part of the harvested cells was also used for flowcytometric analysis of lymphocyte blast formation and apopoptosis, based on forward and side scatter.
Additional experiments were done to evaluate if inhibition of DNA synthesis corresponded to increased mortality of T cells or only to decreased blast formation.

[3] = test system: cervical epithelial cells (MEI180); assay: MTT viability of cervical epithelial cells; format: cell-based; details: exposure 1 hr, 24 hrs or 5 days
HIV-1 (SF162 and 1/BX08) = assay: hu-SCID animal model of vaginal transmission of HIV; format: in vivo; details: single intravaginal 25 μl gel (carbopol 940 or HEC; 0.225, 0.0225 or 0.00225 mM) 15-20 minutes before challenge
Procedure: In order to mimic the in vivo transmission that occurs in humans, a hu-SCID animal model of vaginal transmission of HIV for the evaluation of vaginal microbicides was used (Di Fabio et al., AIDS 2001, 15, 2231-2234 Gels made up of carbopol 940 or hydroxyethyl cellulose (HEC), two water soluble polymers, were prepared containing Compound B in different concentrations (0.225 mM; 0.0225 mM or 0.00225 mM). Animals received a single intravaginal application of 25 μl of gel containing Compound B, 15-20 minutes prior to a non invasive vaginal challenge with 2×10^6 human peripheral blood lymphocytes PBL, (hu-PBL) previously infected in vitro with non-syncitium (NSI) strains of HIV-1 (SF162 and 1/BX08). Cell to cell transmission was assessed by p24 production and by quantitative PCR.

[4] = test system: primary HIV strains (X4, CCR5 and X41R5); assay: Efficacy against primary HIV strains in relevant cell lines; format: cell-based
[5] = test system: Neisseria gonorrhoea strains; assay: In vitro antibacterial activity, Neisseria gonorrhoea; format: cell-based; details: some strains
Text: (§2) Compatibility with lactobacilli and normal vaginal flora is an important requirement for a vaginal microbicide. Activity on pathogens of sexual transmitted diseases is an additional advantage. In in vitro tests for antibacterial activity of compound B, the following susceptibilities were found: • 33 different Lactobacillus species isolated from recto-vaginal cultures of pregnant women were studied.

HIV = assay: Cervical explant model; format: cell-based
Procedure: Compound B, at a concentration of 10 nM, was able to block infection of the tissue and at a concentration of 100 nM the compound could prevent transfer of infectious virus from migratory dendritic cells to co-cultured T-cells.

Lactobacillus species = assay: In vitro antibacterial activity, lactobacilli; format: cell-based; details: 33 different Lactobacillus species from recto-vaginal cultures of pregnant women; read-out: minimum inhibitory concentration (MIC50)
Text: as §2

[6] = test system: T-lymphocyte proliferation; assay: Immune suppressive activity in mixed leukocyte cultures (MO-DC stimulators, allogenic CD4(+) T cells); format: cell-based
Procedure: The immune suppressive activity of compound B was measured in mixed leukocyte cultures (MLC), with MO-DC as stimulators and allogenic CD4(+) T cells as responders. Cultures of 3×10^3 MO-DC and 100×10^3 T cells were set-up in 6-fold in a 96-well plate, in the presence or absence of a dilution series of compound B. In a first part of experiments, compound B was removed after 24 hours by washing and cells were cultured for an additional 4 days. In a second part of experiments, compound B remained present during the 5-day culture period. In both set-ups, 1 μCi of [methyl-^3H] thymidine (TRA. 120 from Amersham Pharmacia, Buckinghamshire, U.K.) was added to each well at the fifth day of culture. Plates were harvested 7 hours later and [methyl-^3H] thymidine incorporation was measured in a scintillation counter (Top Count™, Canberra-Packard, Zellik, Belgium) and expressed as counts per minute (CPM). The
as §1

Cc1cc(C)c(Nc2ccnc(Nc3ccc(C#N)cc3)n2)c(C)c1 [compound B, 4-[[4-[(2,4,6-trimethylphenyl)amino]-2-pyrimidinyl]amino]benzonitrile]
Nature of binding to HIV-1 RT ([1]; against dGTP): non-competitive | Ki ([1]; against dGTP, p(rC)p(dG) constant): 33 nM | Nature of binding to HIV-1 RT ([1]; against p(rC)p(dG)): non-competitive | Ki ([1]; against p(rC)p(dG), substrate constant): 28 nM | Km ([1]; dGTP varied, p(rC)p(dG) constant (Km of the substrate)): 2.51 µM | Km ([1]; p(rC)p(dG) varied, substrate constant (Km of primer/template)): 10.3 µM | Concentration providing protection of infection (HIV-1 RF; virus pretreated prior to addition of cells, without removal of the compound): 10 nM | Concentration providing protection of infection (HIV-1 RF; virus treated 1 hour at 37° C., compound removed by washing, co-culture 8 days): 100 nM | IC50 [2]: 24 nM | 50% death rate of T cells (T cells): 54,222 nM | Fifty percent inhibition of blast formation (T cells): 3,916 nM | Toxicity (viability, MTT assay) ([3]; 100 nM): some reduction of viability | Toxicity (viability, MTT assay) ([3]; 50 μM): no toxicity | Systemic infection after vaginal challenge with HIV-1 infected hu-PBL (p24, quantitative PCR) (HIV-1 (SF162 and 1/BX08)): systemic infection was successfully inhibited | Efficacy against primary HIV strains [4]: good efficacy | Inhibition of Neisseria gonorrhoea strains [5]: inhibited at clinical relevant concentrations | Concentration able to block infection of the tissue (HIV): 10 nM | Concentration preventing transfer of infectious virus from migratory dendritic cells to co-cultured T-cells (HIV): 100 nM | MIC50 (Lactobacillus species): > 32 µg/mL | ISC50 (50% Immune Suppressive Concentration) ([6]; drug present continuously during 5-day culture): about 1,500 nM | ISC50 (50% Immune Suppressive Concentration) ([6]; drug present continuously during 5-day culture, listed as Comp. B): 1,515 nM | ISC50 (50% Immune Suppressive Concentration) ([6]; drug present during first 24 hours only): ~25,000 nM | ISC50 (50% Immune Suppressive Concentration) ([6]; drug present during first 24 hours only, listed as Comp. B): 24,886 nM
